The values below are quoted from earlier work in patent US11654140B2, “Treatment of ocular inflammatory diseases using laquinimod” (Active Biotech AB, priority 2012, dated 2023).

This data set relates to patients with a history of uveitis. Conditions: patients with a history of uveitis (Sergott, 2011); cited from earlier work.

For `CCCCCCCCc1ccc(CCC(N)(CO)CO)cc1` [fingolimod], the “risk of macular edema” value is reported as “known to pose a risk of macular edema”.
